Measurements from PubChem BioAssay AID248 (DTP/NCI, 2004).
Inconclusive results and toxic doses are left out.

Tested on: L1210 leukemia ip in BDF1 mice, survival T/C
Assay: NCI In Vivo Anticancer Drug Screen. Data for tumor model L1210 Leukemia (intraperitoneal) in B6D2F1 (BDF1) mice
Conditions: endpoint: mean survival time, higher = longer survival
In short: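 Each compound was tested against a transplantable tumor grown in mice. The endpoint was survival, with treated animals benchmarked against vehicle controls as a simple ratio.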

[1] = dose: 100.0 mg/kg/injection, schedule: Q04DX003 (ip), vehicle: saline with Tween-80
[2] = dose: 400.0 mg/kg/injection, schedule: Q04DX003 (ip), vehicle: saline with Tween-80
[3] = dose: 400.0 mg/kg/injection, schedule: Q01DX001 (ip), vehicle: carboxymethylcellulose (CMC)
[4] = dose: 50.0 mg/kg/injection, schedule: Q01DX001 (ip), vehicle: saline
[5] = dose: 100.0 mg/kg/injection, schedule: Q01DX001 (ip), vehicle: saline
[6] = dose: 200.0 mg/kg/injection, schedule: Q01DX001 (ip), vehicle: saline
[7] = dose: 400.0 mg/kg/injection, schedule: Q01DX001 (ip), vehicle: saline
[8] = dose: 75.0 mg/kg/injection, schedule: Q01DX001 (ip), vehicle: saline
[9] = dose: 75.0 mg/kg/injection, schedule: Q04DX003 (ip), vehicle: saline
[10] = dose: 150.0 mg/kg/injection, schedule: Q01DX001 (ip), vehicle: saline
[11] = dose: 150.0 mg/kg/injection, schedule: Q04DX003 (ip), vehicle: saline
[12] = dose: 300.0 mg/kg/injection, schedule: Q04DX003 (ip), vehicle: saline
[13] = dose: 100.0 mg/kg/injection, schedule: Q04DX003 (ip), vehicle: Klucel (hydroxypropylcellulose) (HPC)
[14] = dose: 200.0 mg/kg/injection, schedule: Q04DX003 (ip), vehicle: Klucel (hydroxypropylcellulose) (HPC)
[15] = dose: 400.0 mg/kg/injection, schedule: Q04DX003 (ip), vehicle: Klucel (hydroxypropylcellulose) (HPC)
[16] = dose: 100.0 mg/kg/injection, schedule: Q01DX009 (ip), vehicle: saline with Tween-80

SMILES: Cc1c(C)c2c(c(C)c1O)CCC(C)(CCCC(C)CCCC(C)CCCC(C)C)O2 (stereo not given)
- T/C (dose: 31.2 mg/kg/injection, schedule: Q01DX009 (ip), vehicle: carboxymethylcellulose (CMC)): 107 % of control
- T/C (dose: 62.5 mg/kg/injection, schedule: Q01DX009 (ip), vehicle: carboxymethylcellulose (CMC)): 101 % of control
- T/C [1]: 91 % of control
- T/C (dose: 125.0 mg/kg/injection, schedule: Q01DX009 (ip), vehicle: carboxymethylcellulose (CMC)): 100 % of control
- T/C (dose: 202.0 mg/kg/injection, schedule: Q04DX003 (ip), vehicle: saline with Tween-80): 91 % of control
- T/C (dose: 250.0 mg/kg/injection, schedule: Q01DX009 (ip), vehicle: carboxymethylcellulose (CMC)): 100 % of control
- T/C [2]: 93 % of control

SMILES: C=C1CC(C)(c2ccccn2)OC1=O (stereo not given)
- T/C (dose: 6.25 mg/kg/injection, schedule: Q04DX002 (ip), vehicle: Klucel (hydroxypropylcellulose) (HPC)): 94 % of control
- T/C (dose: 12.5 mg/kg/injection, schedule: Q04DX002 (ip), vehicle: Klucel (hydroxypropylcellulose) (HPC)): 102 % of control
- T/C (dose: 25.0 mg/kg/injection, schedule: Q01DX001 (ip), vehicle: Klucel (hydroxypropylcellulose) (HPC)): 120 % of control
- T/C (dose: 25.0 mg/kg/injection, schedule: Q04DX002 (ip), vehicle: Klucel (hydroxypropylcellulose) (HPC)): 110 % of control
- T/C (dose: 100.0 mg/kg/injection, schedule: Q01DX001 (ip), vehicle: Klucel (hydroxypropylcellulose) (HPC)): 98 % of control

SMILES: CN(Cc1cnc(N)nc1N)c1ccc(C(=O)O)cc1
- T/C (dose: 100.0 mg/kg/injection, schedule: Q01DX001 (ip), vehicle: carboxymethylcellulose (CMC)): 90 % of control
- T/C [3]: 92 % of control

SMILES: CC(C)(CC(=O)NNc1ccccc1)C(=O)O
- T/C [4]: 97 % of control
- T/C [5]: 102 % of control
- T/C [6]: 100 % of control
- T/C [7]: 102 % of control

SMILES: CCN(CC)C(=O)N1CCN(c2ccc(OC)cc2)CC1
- T/C [8]: 94 % of control
- T/C [9]: 100 % of control
- T/C [10]: 100 % of control
- T/C [11]: 100 % of control
- T/C (dose: 300.0 mg/kg/injection, schedule: Q01DX001 (ip), vehicle: saline): 91 % of control
- T/C [12]: 110 % of control

SMILES: COC(=O)c1cccc(C)c1NC(=O)NCCCl
- T/C [13]: 96 % of control
- T/C [14]: 96 % of control
- T/C [15]: 94 % of control

SMILES: c1ccc(-c2cc(-c3ccccc3)[s+]s2)cc1
- T/C (dose: 50.0 mg/kg/injection, schedule: Q01DX009 (ip), vehicle: saline with Tween-80): 100 % of control
- T/C [16]: 90 % of control
- T/C [1]: 113 % of control
- T/C (dose: 200.0 mg/kg/injection, schedule: Q04DX003 (ip), vehicle: saline with Tween-80): 92 % of control
- T/C [2]: 88 % of control

SMILES: COc1cc2c(cc1NC(=O)N(CCCl)N=O)-c1ccccc1C2
- T/C (dose: 22.0 mg/kg/injection, schedule: Q01DX009 (ip), vehicle: carboxymethylcellulose (CMC)): 150 % of control
- T/C (dose: 33.0 mg/kg/injection, schedule: Q01DX009 (ip), vehicle: carboxymethylcellulose (CMC)): 152 % of control
- T/C (dose: 50.0 mg/kg/injection, schedule: Q01DX009 (ip), vehicle: carboxymethylcellulose (CMC)): 169 % of control
- T/C (dose: 75.0 mg/kg/injection, schedule: Q01DX009 (ip), vehicle: carboxymethylcellulose (CMC)): 152 % of control
- T/C (dose: 118.0 mg/kg/injection, schedule: Q01DX009 (ip), vehicle: carboxymethylcellulose (CMC)): 250 % of control
- T/C (dose: 177.0 mg/kg/injection, schedule: Q01DX001 (ip), vehicle: other): 123 % of control
- T/C (dose: 177.0 mg/kg/injection, schedule: Q01DX009 (ip), vehicle: carboxymethylcellulose (CMC)): 256 % of control
- T/C (dose: 266.0 mg/kg/injection, schedule: Q01DX001 (ip), vehicle: carboxymethylcellulose (CMC)): 151 % of control
- T/C (dose: 266.0 mg/kg/injection, schedule: Q01DX001 (ip), vehicle: other): 155 % of control
- T/C (dose: 266.0 mg/kg/injection, schedule: Q01DX009 (ip), vehicle: carboxymethylcellulose (CMC)): 284 % of control
- T/C [3]: 173 % of control
- T/C (dose: 400.0 mg/kg/injection, schedule: Q01DX001 (ip), vehicle: other): 170 % of control
- T/C (dose: 400.0 mg/kg/injection, schedule: Q01DX009 (ip), vehicle: carboxymethylcellulose (CMC)): 196 % of control
- T/C (dose: 600.0 mg/kg/injection, schedule: Q01DX001 (ip), vehicle: carboxymethylcellulose (CMC)): 196 % of control
- T/C (dose: 600.0 mg/kg/injection, schedule: Q01DX001 (ip), vehicle: other): 164 % of control

SMILES: CCCCCCCCCCCC(=O)NC(=S)Nc1ccc(C)c(Cl)c1
- T/C [13]: 89 % of control
- T/C [14]: 95 % of control
- T/C [15]: 90 % of control

SMILES: CN(C)c1ccc(CN2CCCN(Cc3ccc(N(C)C)cc3)C2c2ccccc2O)cc1
- T/C [16]: 100 % of control
- T/C [13]: 97 % of control
- T/C (dose: 200.0 mg/kg/injection, schedule: Q01DX009 (ip), vehicle: saline with Tween-80): 107 % of control
- T/C [14]: 100 % of control
- T/C (dose: 400.0 mg/kg/injection, schedule: Q01DX009 (ip), vehicle: saline with Tween-80): 106 % of control
- T/C [15]: 97 % of control

SMILES: C=C1C(=O)N(C)CCC1C(CC)C(=O)OC (stereo not given)
- T/C (dose: 25.0 mg/kg/injection, schedule: Q01DX001 (ip), vehicle: saline): 101 % of control
- T/C (dose: 25.0 mg/kg/injection, schedule: Q04DX003 (ip), vehicle: saline): 95 % of control
- T/C (dose: 25.0 mg/kg/injection, schedule: Q04DX003 (oral), vehicle: saline): 107 % of control
- T/C [4]: 88 % of control
- T/C (dose: 50.0 mg/kg/injection, schedule: Q04DX003 (ip), vehicle: saline): 93 % of control
- T/C (dose: 50.0 mg/kg/injection, schedule: Q04DX003 (oral), vehicle: saline): 109 % of control
- T/C [5]: 98 % of control
- T/C (dose: 100.0 mg/kg/injection, schedule: Q04DX003 (ip), vehicle: saline): 93 % of control
- T/C (dose: 100.0 mg/kg/injection, schedule: Q04DX003 (oral), vehicle: saline): 98 % of control
- T/C [6]: 93 % of control
- T/C (dose: 200.0 mg/kg/injection, schedule: Q04DX003 (ip), vehicle: saline): 95 % of control
- T/C (dose: 200.0 mg/kg/injection, schedule: Q04DX003 (oral), vehicle: saline): 94 % of control

SMILES: O=c1[nH]cc(/C=N\Nc2ccccc2)c(=O)[nH]1
- T/C [4]: 97 % of control
- T/C [5]: 101 % of control
- T/C [6]: 101 % of control
- T/C [7]: 101 % of control

SMILES: Cc1cccc(NC(=O)C(Br)C(Br)c2ccccc2)c1C (stereo not given)
- T/C (dose: 100.0 mg/kg/injection, schedule: Q01DX009 (ip), vehicle: Klucel (hydroxypropylcellulose) (HPC)): 94 % of control
- T/C (dose: 200.0 mg/kg/injection, schedule: Q01DX009 (ip), vehicle: Klucel (hydroxypropylcellulose) (HPC)): 105 % of control
- T/C (dose: 400.0 mg/kg/injection, schedule: Q01DX009 (ip), vehicle: Klucel (hydroxypropylcellulose) (HPC)): 105 % of control

SMILES: Nc1nc(-c2ccc3c(c2)Sc2ccccc2O3)cs1
- T/C [9]: 93 % of control
- T/C [11]: 91 % of control
- T/C [12]: 91 % of control

SMILES: Cc1nc(C(=O)O)c(=O)[nH]c1C
- T/C (dose: 50.0 mg/kg/injection, schedule: Q01DX009 (ip), vehicle: water): 103 % of control
- T/C (dose: 100.0 mg/kg/injection, schedule: Q01DX009 (ip), vehicle: water): 103 % of control
- T/C (dose: 100.0 mg/kg/injection, schedule: Q04DX003 (ip), vehicle: water): 102 % of control
- T/C (dose: 200.0 mg/kg/injection, schedule: Q01DX009 (ip), vehicle: water): 101 % of control
- T/C (dose: 200.0 mg/kg/injection, schedule: Q04DX003 (ip), vehicle: water): 101 % of control

SMILES: C[CH2][Sn]([CH2]C)([CH2]C)[NH]S(=O)(=O)c1ccc(C)cc1
- T/C (dose: 3.12 mg/kg/injection, schedule: Q01DX009 (ip), vehicle: saline with Tween-80): 92 % of control
- T/C (dose: 12.5 mg/kg/injection, schedule: Q04DX003 (ip), vehicle: saline): 106 % of control

SMILES: CN(C)c1ccc(/C=N/NC(=O)C(O)C(O)C(O)C(O)CO)c(Cl)c1 (stereo not given)
- T/C (dose: 100.0 mg/kg/injection, schedule: Q04DX002 (ip), vehicle: saline with Tween-80): 98 % of control
- T/C (dose: 200.0 mg/kg/injection, schedule: Q04DX002 (ip), vehicle: saline with Tween-80): 91 % of control
- T/C (dose: 400.0 mg/kg/injection, schedule: Q04DX002 (ip), vehicle: saline with Tween-80): 88 % of control

SMILES: CCN(CC)CCCNC(c1ccc(OC)cc1)C(Cl)(Cl)Cl (stereo not given)
- T/C [8]: 90 % of control
- T/C [10]: 93 % of control
